According to patent publication US20250034210A1, “DLL3 TARGETING PEPTIDES AND CONSTRUCTS THEREOF” (MARIANA ONCOLOGY INC., priority 2023, published 2025):
*1 amine or outer side, *2 acyl side, *3 side chain or, on linkers, in order; H or OH if unused. Where a SMILES comes first, the peptide text is derived from it. Bridges are numbered along the chain shown (N, C = ends). [ ]: non-standard residue; d: D form. The star is where a group is joined. ξ: configuration not given here. X2 = O=C(O)CN1CCN(CC(=O)O)CCN(CC(=O)NCCCOCCOCCOCCCN*)CCN(CC(=O)O)CC1; DOTA = O=C(O)CN1CCN(CC(=O)O)CCN(CC(=O)*)CCN(CC(=O)O)CC1; Trp(5-F) = N[C@@H](Cc1c[nH]c2ccc(F)cc12)C(=O)O; PEG8 = NCCOCCOCCOCCOCCOCCOCCOCCOCCC(=O)O; X1 = O=C(C[C@H]1CC[C@H](N[*:1])CC1)[*:2]; 1Nal = N[C@@H](Cc1cccc2ccccc12)C(=O)O; 2Nal = N[C@@H](Cc1ccc2ccccc2c1)C(=O)O; Suc = O=C(CCC(=O)[*:2])[*:1]; ξIle = CC[C@H](C)C(N)C(=O)O; Ahx = NCCCCCC(=O)O; ξP = O=C(O)C1CCCN1; Sar = CNCC(=O)O

target: T1, human DLL3 (Homo sapiens, UniProt Q9NYJ7); test: Affinity determination by Surface Plasmon Resonance (SPR), biotinylated human DLL3 immobilized on streptavidin sensor chip; conditions: 25° C., Biacore, 1:1 binding model
T1 construct: biotin (biotinylated)
T1 sequence (Q9NYJ7 27-618): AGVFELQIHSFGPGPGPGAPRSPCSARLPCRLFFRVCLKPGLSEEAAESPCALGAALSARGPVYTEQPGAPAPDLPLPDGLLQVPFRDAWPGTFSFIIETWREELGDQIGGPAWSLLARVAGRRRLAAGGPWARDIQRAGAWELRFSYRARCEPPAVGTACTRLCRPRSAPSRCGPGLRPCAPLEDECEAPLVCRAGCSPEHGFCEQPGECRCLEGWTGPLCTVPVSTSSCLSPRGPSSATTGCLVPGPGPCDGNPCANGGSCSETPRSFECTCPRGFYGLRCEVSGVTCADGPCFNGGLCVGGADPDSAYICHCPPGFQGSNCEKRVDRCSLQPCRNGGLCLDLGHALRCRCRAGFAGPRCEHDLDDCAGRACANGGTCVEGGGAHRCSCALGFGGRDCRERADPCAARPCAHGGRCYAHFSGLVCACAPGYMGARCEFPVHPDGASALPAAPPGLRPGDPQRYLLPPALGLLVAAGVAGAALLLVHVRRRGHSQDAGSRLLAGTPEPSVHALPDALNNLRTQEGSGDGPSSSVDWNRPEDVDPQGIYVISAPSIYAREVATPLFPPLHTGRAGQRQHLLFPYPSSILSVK
Protocol: Affinity Determination by Surface Plasmon Resonance (SPR). SPR studies were performed on the compounds disclosed herein using the following protocol.
The binding affinity and binding kinetic parameters at 25° C. were determined using Biacore S200 or biacore 8K instrument. Biotinylated target ligand human DLL3 was immobilized on a streptavidin sensor chip. A reference surface was set up for nonspecific binding and refractive index changes. For analysis of the kinetics of interactions, varying concentrations of samples were injected at a flow rate of 100 μL/min using running buffer containing 20 mM phosphate buffer with 2.7 mM KCl, 137 mM NaCl, 0.05% Surfactant P20 and 2% DMSO. Sensorgram curves were fitted with 1:1 binding model, and affinity and kinetic parameters were obtained using Biacore Insight evaluation 4.0. software.

Kd	SMILES
10 to 100 nM	CC[C@H](C)C(NC(=O)[C@@H](NC(=O)[C@H](Cc1c[nH]c2ccccc12)NC(=O)CCCCCNC(=O)CN1CCN(CC(=O)O)CCN(CC(=O)O)CCN(CC(=O)O)CC1)[C@@H](C)O)C(=O)N[C@H]1CSSC[C@@H](C(=O)N[C@@H](Cc2c[nH]c3ccccc23)C(=O)N2CCC[C@H]2C(N)=O)NC(=O)[C@H](CC(=O)O)NC(=O)[C@H](Cc2cnc[nH]2)NC(=O)[C@H](Cc2cccc3ccccc23)NC(=O)[C@H](CC(N)=O)NC(=O)[C@H](CC(N)=O)NC1=O (stereo partly drawn) [compound 56, DOTA-Ahx-W-T-I-C(3)-N-N-(1Nal)-H-D-C(3)-W-P-CONH2] ({DOTA-Ahx}-WT[ξIle]CNN[1Nal]HDCWP-NH2; disulfide 4-10)
1 to 10 nM	CC[C@H](C)C(NC(=O)[C@@H](NC(=O)[C@H](Cc1c[nH]c2ccccc12)NC(=O)CCCCCNC(=O)CN1CCN(CC(=O)O)CCN(CC(=O)O)CCN(CC(=O)O)CC1)[C@@H](C)O)C(=O)N[C@H]1CSSC[C@@H](C(=O)N[C@@H](Cc2c[nH]c3ccccc23)C(=O)N2CCC[C@H]2C(N)=O)NC(=O)[C@H](CC(=O)O)NC(=O)[C@H](Cc2cnc[nH]2)NC(=O)[C@H](Cc2ccc3ccccc3c2)NC(=O)[C@H](CC(N)=O)NC(=O)[C@H](CC(N)=O)NC1=O (stereo partly drawn) [compound 57, DOTA-Ahx-W-T-I-C(3)-N-N-(2Nal)-H-D-C(3)-W-P-CONH2] ({DOTA-Ahx}-WT[ξIle]CNN[2Nal]HDCWP-NH2; disulfide 4-10)
1 to 10 nM	CC[C@H](C)[C@H](NC(=O)[C@@H](NC(=O)[C@H](Cc1c[nH]c2ccc(F)cc12)NC(=O)CCCCCNC(=O)CN1CCN(CC(=O)O)CCN(CC(=O)O)CCN(CC(=O)O)CC1)[C@@H](C)O)C(=O)N[C@H]1CSSC[C@@H](C(=O)N[C@@H](Cc2c[nH]c3ccccc23)C(=O)N2CCC[C@H]2C(N)=O)NC(=O)[C@H](CC(=O)O)NC(=O)[C@H](Cc2cnc[nH]2)NC(=O)[C@H](Cc2c[nH]c3ccccc23)NC(=O)[C@H](CC(N)=O)NC(=O)[C@H](CC(N)=O)NC1=O [compound 58, DOTA-Ahx-(5Fluoro-W)-T-I-C(3)-N-N-W-H-D-C(3)-W-P-CONH2] ({DOTA-Ahx}-[Trp(5-F)]TICNNWHDCWP-NH2; disulfide 4-10)
10 to 100 nM	CC[C@H](C)[C@H](NC(=O)[C@@H](NC(=O)[C@H](Cc1c[nH]c2ccccc12)NC(=O)CCCCCNC(=O)CN1CCN(CC(=O)O)CCN(CC(=O)O)CCN(CC(=O)O)CC1)[C@@H](C)O)C(=O)N[C@H]1CSSC[C@@H](C(=O)N[C@@H](Cc2c[nH]c3ccccc23)C(=O)N2CCC[C@H]2C(N)=O)NC(=O)[C@H](CC(=O)O)NC(=O)[C@H](Cc2cnc[nH]2)NC(=O)[C@H](Cc2c[nH]c3ccc(F)cc23)NC(=O)[C@H](CC(N)=O)NC(=O)[C@H](CC(N)=O)NC1=O [compound 59, DOTA-Ahx-W-T-I-C(3)-N-N-(5Fluoro-W)-H-D-C(3)-W-P-CONH2] ({DOTA-Ahx}-WTICNN[Trp(5-F)]HDCWP-NH2; disulfide 4-10)
10 to 100 nM	CC[C@H](C)[C@H](NC(=O)[C@@H](NC(=O)[C@H](Cc1c[nH]c2ccccc12)NC(=O)CCCCCNC(=O)CN1CCN(CC(=O)O)CCN(CC(=O)O)CCN(CC(=O)O)CC1)[C@@H](C)O)C(=O)N[C@H]1CSSC[C@@H](C(=O)N[C@@H](Cc2c[nH]c3ccc(F)cc23)C(=O)N2CCC[C@H]2C(N)=O)NC(=O)[C@H](CC(=O)O)NC(=O)[C@H](Cc2cnc[nH]2)NC(=O)[C@H](Cc2c[nH]c3ccccc23)NC(=O)[C@H](CC(N)=O)NC(=O)[C@H](CC(N)=O)NC1=O [compound 60, DOTA-Ahx-W-T-I-C(3)-N-N-W-H-D-C(3)-(5Fluoro-W)-P-CONH2] ({DOTA-Ahx}-WTICNNWHDC[Trp(5-F)]P-NH2; disulfide 4-10)

Second part, the compound before the results:

SMILES	Kd
CC[C@H](C)[C@H](NC(=O)[C@@H](NC(=O)[C@H](Cc1c[nH]c2ccccc12)NC(=O)CN1CCN(CC(=O)O)CCN(CC(=O)O)CCN(CC(=O)O)CC1)[C@@H](C)O)C(=O)N[C@H]1CSSC[C@@H](C(=O)N[C@@H](Cc2c[nH]c3ccccc23)C(=O)N2CCC[C@H]2C(N)=O)NC(=O)[C@H](CC(=O)O)NC(=O)[C@H](Cc2cnc[nH]2)NC(=O)[C@H](Cc2c[nH]c3ccccc23)NC(=O)[C@H](CC(N)=O)NC(=O)[C@H](CC(N)=O)NC1=O [compound 17, DOTA-W-T-I-C(3)-N-N-W-H-D-C(3)-W-P-CONH2] ({DOTA}-WTICNNWHDCWP-NH2; disulfide 4-10)	10 to 100 nM
CC[C@H](C)[C@H](NC(=O)[C@@H](NC(=O)[C@H](Cc1c[nH]c2ccccc12)NC(=O)C[C@H]1CC[C@H](NC(=O)CN2CCN(CC(=O)O)CCN(CC(=O)O)CCN(CC(=O)O)CC2)CC1)[C@@H](C)O)C(=O)N[C@H]1CSSC[C@@H](C(=O)N[C@@H](Cc2c[nH]c3ccccc23)C(=O)N2CCC[C@H]2C(N)=O)NC(=O)[C@H](CC(=O)O)NC(=O)[C@H](Cc2cnc[nH]2)NC(=O)[C@H](Cc2c[nH]c3ccccc23)NC(=O)[C@H](CC(N)=O)NC(=O)[C@H](CC(N)=O)NC1=O [compound 19, DOTA-CyHex-W-T-I-C(3)-N-N-W-H-D-C(3)-W-P-CONH2] ({DOTA}-[X1]WTICNNWHDCWP-NH2; disulfide 5-11)	10 to 100 nM
CC[C@H](C)[C@H](NC(=O)[C@@H](NC(=O)[C@H](Cc1c[nH]c2ccccc12)NC(=O)CCOCCOCCOCCOCCOCCOCCOCCOCCNC(=O)CN1CCN(CC(=O)O)CCN(CC(=O)O)CCN(CC(=O)O)CC1)[C@@H](C)O)C(=O)N[C@H]1CSSC[C@@H](C(=O)N[C@@H](Cc2c[nH]c3ccccc23)C(=O)N2CCC[C@H]2C(N)=O)NC(=O)[C@H](CC(=O)O)NC(=O)[C@H](Cc2cnc[nH]2)NC(=O)[C@H](Cc2c[nH]c3ccccc23)NC(=O)[C@H](CC(N)=O)NC(=O)[C@H](CC(N)=O)NC1=O [compound 20, DOTA-PEG8-W-T-I-C(3)-N-N-W-H-D-C(3)-W-P-CONH2] ({DOTA-PEG8}-WTICNNWHDCWP-NH2; disulfide 4-10)	10 to 100 nM
CC[C@H](C)[C@H](NC(=O)[C@@H](NC(=O)[C@H](Cc1c[nH]c2ccccc12)NC(=O)CNC(=O)CNC(=O)CCC(=O)NCCCOCCOCCOCCCNC(=O)CN1CCN(CC(=O)O)CCN(CC(=O)O)CCN(CC(=O)O)CC1)[C@@H](C)O)C(=O)N[C@H]1CSSC[C@@H](C(=O)N[C@@H](Cc2c[nH]c3ccccc23)C(=O)N2CCC[C@H]2C(N)=O)NC(=O)[C@H](CC(=O)O)NC(=O)[C@H](Cc2c[nH]cn2)NC(=O)[C@H](Cc2c[nH]c3ccccc23)NC(=O)[C@H](CC(N)=O)NC(=O)[C@H](CC(N)=O)NC1=O [compound 21] ({X2-Suc}-GGWTICNNWHDCWP-NH2; disulfide 6-12)	1 to 10 nM
CC[C@H](C)[C@H](NC(=O)[C@@H](NC(=O)[C@H](Cc1c[nH]c2ccccc12)NC(=O)CN(C)C(=O)CN(C)C(=O)CN(C)C(=O)CN(C)C(=O)CN(C)C(=O)CN1CCN(CC(=O)O)CCN(CC(=O)O)CCN(CC(=O)O)CC1)[C@@H](C)O)C(=O)N[C@H]1CSSC[C@@H](C(=O)N[C@@H](Cc2c[nH]c3ccccc23)C(=O)N2CCCC2C(N)=O)NC(=O)[C@H](CC(=O)O)NC(=O)[C@H](Cc2cnc[nH]2)NC(=O)[C@H](Cc2c[nH]c3ccccc23)NC(=O)[C@H](CC(N)=O)NC(=O)[C@H](CC(N)=O)NC1=O (stereo partly drawn) [compound 22, DOTA-(Sar)5-W-T-I-C(3)-N-N-W-H-D-C(3)-W-P-CONH2] ({DOTA}-[Sar][Sar][Sar][Sar][Sar]WTICNNWHDCW[ξP]-NH2; disulfide 9-15)	1 to 10 nM
CC[C@H](C)C(NC(=O)[C@@H](NC(=O)[C@H](Cc1c[nH]c2ccccc12)NC(=O)CCCCCNC(=O)CN1CCN(CC(=O)O)CCN(CC(=O)O)CCN(CC(=O)O)CC1)[C@@H](C)O)C(=O)N[C@H]1CSSC[C@@H](C(=O)N[C@@H](Cc2cccc3ccccc23)C(=O)N2CCC[C@H]2C(N)=O)NC(=O)[C@H](CC(=O)O)NC(=O)[C@H](Cc2cnc[nH]2)NC(=O)[C@H](Cc2c[nH]c3ccccc23)NC(=O)[C@H](CC(N)=O)NC(=O)[C@H](CC(N)=O)NC1=O (stereo partly drawn) [compound 54, DOTA-Ahx-W-T-I-C(3)-N-N-W-H-D-C(3)-(1Nal)-P-CONH2] ({DOTA-Ahx}-WT[ξIle]CNNWHDC[1Nal]P-NH2; disulfide 4-10)	10 to 100 nM
CC[C@H](C)C(NC(=O)[C@@H](NC(=O)[C@H](Cc1c[nH]c2ccccc12)NC(=O)CCCCCNC(=O)CN1CCN(CC(=O)O)CCN(CC(=O)O)CCN(CC(=O)O)CC1)[C@@H](C)O)C(=O)N[C@H]1CSSC[C@@H](C(=O)N[C@@H](Cc2ccc3ccccc3c2)C(=O)N2CCC[C@H]2C(N)=O)NC(=O)[C@H](CC(=O)O)NC(=O)[C@H](Cc2cnc[nH]2)NC(=O)[C@H](Cc2c[nH]c3ccccc23)NC(=O)[C@H](CC(N)=O)NC(=O)[C@H](CC(N)=O)NC1=O (stereo partly drawn) [compound 55, DOTA-Ahx-W-T-I-C(3)-N-N-W-H-D-C(3)-(2Nal)-P-CONH2] ({DOTA-Ahx}-WT[ξIle]CNNWHDC[2Nal]P-NH2; disulfide 4-10)	100 to 300 nM
